Assay results reported in patent publication US8415309B2, “Bicyclic nucleosides and nucleotides as therapeutic agents” (priority 2009, dated 2013).
Like-named read-outs stand apart in the source and are kept apart here.

Assays:
Cross-species PK summary = assay type: in vivo, rats, monkeys and dogs; settings: Sprague-Dawley (rat), beagle (dog), cynomolgus (monkey), plasma
Experimental: (§1) The pharmacokinetic properties of Compound 9 were determined in male Sprague-Dawley rats, beagle dogs and cynomolgus monkeys (n=3 in each species) with an oral dose of 5 mg/kg and iv dose of 2 mg/kg. PK parameters were analyzed using the WinNonlin noncompartmental model.

Pharmacokinetics in dogs = assay type: in vivo, beagle dogs; settings: Dog
Experimental: as §1

[1] = Cytotoxicity (CellTiter-Blue / MTT) run with the replicon assay; assay type: cell-based; settings: human, MP-1 cells
Experimental: The assay outline includes the following steps on Day 1: (1) Plate cells at a density of 10,000 cells/well of a 96 well plate and incubate 37° C.; (2) Make compound dilutions; (3) Add compound dilutions to cells; (4) Incubate for 72 h. The assay includes the following steps on Day 4: (1) Perform Cell titer blue assay for cytotoxicity (the assay is based on the reduction of resazurin (cell titer blue) into a fluorescent product, resorufin, in metabolically active cells, and the assay can be duplexed with the assay used for HCV replicon luciferase reporter assay); (2) Perform luciferase assay with the Bright-Glo luciferase substrate (Promega) and read luminescence; (3) Process results.
Under the Alamar blue assay protocol, the assay plates are removed from a 37° C. incubator, and 20 μl of CellTiter-Blue™ Reagent is added. The cells are incubated in the 37° C. incubator for 3 h. The assay plates are shaken for 10 sec and fluorescence at 560Ex/590Em nm is recorded. The results are expressed relative to the 100% untreated control using the following equation: […]=100−[(RFUcompound−RFUblank/RFUuntreated−RFUblank)×100]. Alternatively, under the MTT protocol the extent of cytotoxicity is determined via metabolism of the vital dye 3-(4,5-dimethylthiaxol-2-yl)-2,5-diphenyltetrazolium bromide (MTT). MTT (1 mg/ml) was added to each well and plates incubated for 3 hours incubation at 37° C. Wells were aspirated, iso-propanol […] was added and absorbance values read at 540/690 nm. Compound concentrations that developed 50% cytotoxicity (CC50) were calculated using non-linear regression analysis.

Pharmacokinetics in rats = assay type: in vivo, male Sprague-Dawley rats; settings: Rat
Experimental: as §1

[2] = test system: HCV RNA replication (HCV subgenomic replicon in MP-1 cells); assay: Cell-Based HCV RNA Replication Luciferase Reporter Assay; settings: Hepatitis C virus; for inhibition at 50 µM: read-out: Inhibition at 50 μM (%); for EC50: 72 h
[3] = Pharmacokinetics in monkeys; assay type: in vivo, cynomolgus monkeys
Experimental: as §1

[4] = oral 5 mg/kgBW, read-out: Cmax (maximum concentration observed following the oral dose)
[5] = MP-1 cells, luciferase readout, read-out: EC50

Row | Structure (SMILES) | CC50 at 72 h [1] [µM] | inhibition at 50 µM ([2]; 50 μM compound) [%] | EC50 [2, 5] [µM] | further results
1 | C[C@@]1(O)[C@H](O)[C@@H](CO)O[C@H]1c1ccc2c(N)ncnn12 [Compound 9, 4-amino-7-(2-C-methyl-β-D-ribofuranosyl)-pyrrolo[2,1-f][1,2,4]triazine] | 365 | 99 | 1.3 | bioavailability (Cross-species PK summary; po, 5 mg/kg, range over rat, monkey, dog, read-out: oral bioavailability across species): 33 to 96%; half-life (Cross-species PK summary; range over preclinical animal species (rat, monkey, dog), read-out: plasma / elimination half-life across species): 4 to 7.6 h; Cmax (Pharmacokinetics in dogs; [4]): 8360 nM; CL (total clearance) (Pharmacokinetics in dogs; single iv 2 mg/kgBW): 11.4 mL/min/kgBW; Vss (steady state volume distribution) (Pharmacokinetics in dogs; single iv 2 mg/kgBW): 5.22 L/kgBW; bioavailability (Pharmacokinetics in dogs; beagle, plasma, 5 mg/kg, oral 5 mg/kgBW vs iv 2 mg/kgBW, read-out: F % (oral bioavailability)): 96%; AUC (Pharmacokinetics in dogs; beagle, plasma, 5 mg/kg, single iv (2 mg/kgBW) or oral dose (5 mg/kgBW), read-out: AUC (area under the curve of plasma exposure)): 24.9 µM·h; half-life (Pharmacokinetics in dogs; beagle, plasma, single iv (2 mg/kgBW) or oral dose (5 mg/kgBW), read-out: t1/2 (terminal elimination half-life) (converted)): 7.6 h; Cmax (Pharmacokinetics in rats; [4]): 2380 nM; CL (total clearance) (Pharmacokinetics in rats; single iv 2 mg/kgBW): 18.8 mL/min/kgBW; Vss (steady state volume distribution) (Pharmacokinetics in rats; single iv 2 mg/kgBW): 4.19 L/kgBW; bioavailability (Pharmacokinetics in rats; male, Sprague-Dawley, plasma, 5 mg/kg, oral 5 mg/kgBW vs iv 2 mg/kgBW, read-out: F % (oral bioavailability)): 83%; AUC (Pharmacokinetics in rats; male, Sprague-Dawley, plasma, 5 mg/kg, single iv (2 mg/kgBW) or oral dose (5 mg/kgBW), read-out: AUC (area under the curve of plasma exposure)): 13 µM·h; half-life (Pharmacokinetics in rats; male, Sprague-Dawley, plasma, single iv (2 mg/kgBW) or oral dose (5 mg/kgBW), read-out: t1/2 (terminal elimination half-life) (converted)): 4 h; CL (total clearance) ([3]; Monkey, single iv 2 mg/kgBW): 20.5 mL/min/kgBW; Vss (steady state volume distribution) ([3]; Monkey, single iv 2 mg/kgBW): 2.43 L/kgBW; bioavailability ([3]; cynomolgus monkey, plasma, 5 mg/kg, oral 5 mg/kgBW vs iv 2 mg/kgBW, read-out: F % (oral bioavailability)): 33%; Cmax ([3]; cynomolgus monkey, plasma, 5 mg/kg, oral 5 mg/kgBW, read-out: Cmax (maximum concentration observed following the oral dose)): 820 nM; AUC ([3]; cynomolgus monkey, plasma, 5 mg/kg, single iv (2 mg/kgBW) or oral dose (5 mg/kgBW), read-out: AUC (area under the curve of plasma exposure)): 5 µM·h; half-life ([3]; cynomolgus monkey, plasma, single iv (2 mg/kgBW) or oral dose (5 mg/kgBW), read-out: t1/2 (terminal elimination half-life) (converted)): 4.3 h
2 | C[C@@]1(O)[C@H](O)[C@@H](CO)O[C@H]1c1cc(F)c2c(N)ncnn12 [Compound 11, 4-amino-5-fluoro-7-(2-C-methyl-β-D-ribofuranosyl)-pyrrolo[2,1-f][1,2,4]triazine] | > 100 | 97 | 3.1 | –
3 | C[C@@]1(O)[C@H](O)[C@@H](CO)O[C@H]1c1cc(Cl)c2c(N)ncnn12 [Compound 12, 4-amino-5-chloro-7-(2-C-methyl-β-D-ribofuranosyl)-pyrrolo[2,1-f][1,2,4]triazine] | 6.5 | 99 | 0.22 | –
4 | C[C@@]1(O)[C@H](O)[C@@H](CO)O[C@H]1c1cc(I)c2c(N)ncnn12 [Compound 13, 4-amino-5-iodo-(2-C-methyl-β-D-ribofuranosyl)-pyrrolo[2,1-f][1,2,4]triazine] | – | 97 | – | –
5 | C[C@@]1(O)[C@H](O)[C@@H](CO)O[C@H]1c1cc(C#N)c2c(N)ncnn12 [Compound 14, 4-amino-7-(2-C-methyl-β-D-ribofuranosyl)-pyrrolo[2,1-f][1,2,4]triazine-5-carbonitrile] | 18.8 | 100 | 1.4 | –
6 | C[C@@]1(O)[C@H](O)[C@@H](CO)O[C@H]1c1cc(C(N)=O)c2c(N)ncnn12 [Compound 15, 4-amino-7-(2-C-methyl-β-D-ribofuranosyl)-pyrrolo[2,1-f][1,2,4]triazine-5-carboxylic acid amide] | 0.37 | 100 | 0.0062 | –
7 | C[C@@]1(O)[C@H](O)[C@@H](CO)O[C@H]1c1cc(C#C[Si](C)(C)C)c2c(N)ncnn12 [Compound 16, 4-amino-5-trimethylsilanylethynyl-7-(2-C-methyl-β-D-ribofuranosyl)-pyrrolo[2,1-f][1,2,4]triazine] | – | 99 | – | –
8 | C#Cc1cc([C@@H]2O[C@H](CO)[C@@H](O)[C@@]2(C)O)n2ncnc(N)c12 [Compound 17, 4-Amino-5-ethynyl-7-(2-C-methyl-β-D-ribofuranosyl)-pyrrolo[2,1-f][1,2,4]triazine] | – | 98 | – | –
9 | C[C@@]1(O)[C@H](O)[C@@H](CO)O[C@H]1c1ccc2c(N)nc(N)nn12 [Compound 20, 2,4-diamino-7-(2-C-methyl-β-D-ribofuranosyl)-pyrrolo[2,1-f][1,2,4]triazine] | – | 19 | – | –
10 | C[C@@]1(O)[C@H](O)[C@@H](CO)O[C@H]1c1cc(-c2ncco2)c2c(N)ncnn12 [Compound 22, 4-amino-5-oxazol-2-yl-7-(2-C-methyl-β-D-ribofuranosyl)-pyrrolo[2,1-f][1,2,4]triazine] | – | 95 | – | –
11 | C[C@@]1(O)[C@H](O)[C@@H](CO)O[C@H]1c1c(F)cc2c(N)ncnn12 [Compound 32, 4-Amino-6-fluoro-7-(2-C-methyl-β-D-ribofuranosyl)-pyrrolo[2,1-f][1,2,4]triazin-7-yl] | – | 23 | – | –
12 | CC(C)(C)C(=O)OCOP(=O)(OCOC(=O)C(C)(C)C)OC[C@H]1O[C@@H](c2ccc3c(N)ncnn23)[C@](C)(O)[C@@H]1O [Compound 34, Bis-POM (pivaloyloxymethyl) prodrug of 4-amino-7-(2-C-methyl-β-D-ribofuranosyl)-pyrrolo[2,1-f][1,2,4]triazine] | 45 | – | – | EC50 [2]: 3.8 µM; inhibition at 50 µM [2]: 100%
13 | C[C@@]1(O)[C@H](O)[C@@H](CO)O[C@H]1c1cc(C2=NCCN2)c2c(N)ncnn12 [Compound 35, 4-amino-5-imidazoline-7-(2-C-methyl-β-D-ribofuranosyl)-pyrrolo[2,1-f][1,2,4]triazine] | – | 99 | – | –
14 | C[C@@]1(O)[C@H](O)[C@@H](CO)O[C@H]1c1cc(-c2ncc[nH]2)c2c(N)ncnn12 [Compound 38, 4-amino-5-imidazole-7-(2-C-methyl-β-D-ribofuranosyl)-pyrrolo[2,1-f][1,2,4]triazine] | – | 99 | – | –
